Source: patent US10350204B2, “Methods for treating cognitive deficits associated with fragile X syndrome” (Wisconsin Alumni Research Foundation, priority 2015, dated 2019)

Tests used:
Assay type in all cases: cell-based, mouse
[1] = test system: Fmr1 KO and wildtype NPCs; assay: BrdU proliferation assay of cultured NPCs
Procedure: We used only early passage cells (between passage 4 and 10) and only the same passage numbers of wild type (WT) and Fmr1 KO cells. For each experiment, triplicate wells of cells were analyzed, and results were averaged as one data point (n=1). At least 3 independent experiments (n=3) were performed and used for statistical analyses for each analysis. To study cell proliferation, we dissociated neural stem cells with trypsin and plated them on poly-L-ornithine and laminin-coated 24 well plate (Scientific fisher, 87721) at a density of 100,000 cells per well in proliferation medium. At 20 h post-plating, 5 μM 5-bromo-2.′-deoxyuridine (BrdU, Sigma-Aldrich) was added into the culture medium for 6 h. NPCs were then washed with PBS and fixed with 4% paraformaldehyde for 30 min at room temperature, followed by immunohistochemical analysis. To detect BrdU incorporation, fixed cells were pretreated with 1M HCl for 30 min at 37° C., and then washed with borate buffer, pH 8.5, for 30 min. We then followed our standard immunohistochemistry protocol^10. BrdU incorporation assay was determined using an Operetta high content imaging system (PerkinElmer, Inc) and Harmony quantification software (PerkinElmer, Inc). The percentage of proliferating cells was defined as the number of BrdU-labeled cells divided by total DAPI-positive cells.
For proliferation assay in vitro, 1 μM MK2206 (Selleckchem, S1078) (AKT phosphorylation inhibitor), or 2 μM Nutlin-3 (Nt3, Selleckchem, 51061) (Mdm2 inhibitor), or 1 μM RG7112 (Selleckchem, S7030) (Mdm2 inhibitor) or YH239-EE (Selleckchem 57489) (4 μM) (Mdm2 inhibitor) was added to proliferating NPCs at 6 hours post-plating. Cells were then pulse labeled 18 hours later with 5 μM 5-bromo-2′-deoxyuridine (BrdU, Sigma-Aldrich, B5002) and incubated for 6 hours in the presence of inhibitor, followed by fixation, staining, and quantification.

[2] = test system: Fmr1 KO and wildtype NPCs; assay: Differentiation assay of cultured NPCs (Tuj1 neurons, GFAP astrocytes); details: 4 days
Procedure: Proliferation and differentiation of aNPCs were analyzed using our published methods (Guo et al., Nature Med. (2011); Guo et al., Neuron 70, 924-938 (2011); Luo et al., PLoS Genet 6 (2010); Liu et al., Cell Stem Cell 6 (2010)). We used only early passage cells (between passage 4 and 10) and only the same passage numbers of wild type (WT) and Fmr1 KO cells. For each experiment, triplicate wells of cells were analyzed, and results were averaged as one data point (n=1). At least 3 independent experiments (n=3) were performed and used for statistical analyses for each analysis. […] For the differentiation assay, at 24 h post-plating, cells were changed into differentiation medium, Neurobasal A, containing 5 μM forskolin (Sigma-Aldrich, F-6886) and 1 μM retinoic acid (Sigma-Aldrich, R-2625) for 4 d, followed by fixation with 4% paraformaldehyde for 30 min, and then washed with Dulbecco's Phosphate Buffered Saline (DPBS), pH 7.4 for 30 min. Immunocytochemistry staining was carried out as described (Guo et al., Nature Med. (2011); Guo et al., Neuron 70, 924-938 (2011); Luo et al., PLoS Genet 6 (2010); Liu et al., Cell Stem Cell 6 (2010)). Briefly, cells were preblocked using DPBS containing 5% normal goat serum (VECTOR, S-1000) and 0.1% Triton X-100 for 30 min, followed by overnight incubation with primary antibodies: mouse anti-Tuj1 (1:1000, Promega, G712A) and rabbit anti-S100β (1:1000, Dako, Z0334).
After washing with Dulbecco s Phosphate Buffered Saline (DPBS), cells were incubated with secondary antibodies that included goat anti-mouse 568 (1:1000, Invitrogen, A11031), goat anti-rabbit 488 (1:1000, Invitrogen, A11008) followed by counterstaining with the fluorescent nuclear dye 4′,6-diamidino-2′-phenylindole dihydrochloride (DAPI, Sigma-Aldrich, B2261). […] (VECTOR, H-1000), the numbers of Tuj1, GFAP-positive cells were quantified using an Olympus BX51 microscope equipped with a MicroFire digital camera (Optronics) and a motorized stage using a 20× objective lens. The quantification was carried out using an unbiased stereology method with assistance from StereoInvestigator software (MBF Biosciences). The percentage of differentiated cells was calculated as the number of Tuj1- or GFAP-labeled cells divided by the total number of cells stained with DAPI.

[3] = test system: Fmr1 KO and wildtype NPCs; assay: Western blot analyses of p-AKT, p-MDM2, MDM2 and P53 in NPCs; details: total AKT as loading control
[4] = test system: Fmr1 KO and wildtype NPCs; assay: as above
Procedure: NPCs were isolated from the dentate gyms of 8 to 10-week-old male Fmr1 KO mice and wild-type (wildtype) littermate controls based on our published methods (12, 64). Independently isolated cells serve as biological replicates. Proliferation and differentiation of NPCs was analyzed as described (11, 12, 61). We used only early passage cells (between passage 4 and 10) and only the same passage numbers of wildtype and Fmr1 KO cells. For each experiment, triplicate wells of cells were analyzed, and results were averaged as one data point (n=1). At least 3 independent biological replicates were used (n=3) for statistical analyses.
Protein samples were separated on SDS-PAGE gels (Bio-Rad), transferred to PVDF membranes (Millipore), and incubated with primary antibodies. After incubation with fluorescence-labeled secondary antibodies (Li—CoR), the membranes were imaged using Li—CoR and quantification was performed using ImageJ software. At least n=3 independent blots were used for statistical analysis.
For loading controls, membranes were probed with the mouse antibody against GAPDH.

[5] = Fmr1 KO NPCs, 1 μM MK2206, 2 μM Nutlin-3, 1 μM RG7112, 4 μM YH239-EE
[6] = Fmr1 KO NPCs, 1 μM MK2206, 2 μM Nutlin-3, 1 μM RG7112
[7] = wildtype NPCs, 1 μM MK2206, 2 μM Nutlin-3

SMILES: CCOc1cc(C(C)(C)C)ccc1C1=N[C@@](C)(c2ccc(Cl)cc2)[C@@](C)(c2ccc(Cl)cc2)N1C(=O)N1CCN(CCCS(C)(=O)=O)CC1 [RG7112]
- cell proliferation (BrdU+ cells) [1, 5]: rescued the cell proliferation phenotype
- astroglial differentiation (GFAP+) [2, 6]: rescued astroglial differentiation phenotypes
- neuronal differentiation (Tuj1+) [2, 6]: rescued neuronal differentiation phenotypes

SMILES: CCOC(=O)c1[nH]c2cc(Cl)ccc2c1C(C(=O)NC(C)(C)C)N(C=O)Cc1ccc(Cl)cc1 (centres unmarked) [YH239-EE]
- cell proliferation (BrdU+ cells) [1, 5]: rescued the cell proliferation phenotype

SMILES: NC1(c2ccc(-c3nc4ccn5c(=O)[nH]nc5c4cc3-c3ccccc3)cc2)CCC1 [MK-2206]
- cell proliferation (BrdU+ cells) [1, 5]: decreased cell proliferation
- cell proliferation (BrdU+ cells) [1, 7]: decreased cell proliferation
- astroglial differentiation (GFAP+) [2, 6]: decreased
- neuronal differentiation (Tuj1+) [2, 6]: increased neuronal differentiation
- astroglial differentiation (GFAP+) [2, 7]: decreased
- neuronal differentiation (Tuj1+) [2, 7]: increased neuronal differentiation
- p-AKT ([3]; Fmr1 KO NPCs): reduced p-AKT
- p-AKT ([3]; wildtype NPCs): reduced p-AKT
- P53 expression ([4]; Fmr1 KO NPCs): enhanced P53 expression
- p-MDM2 (Ser166) ([4]; Fmr1 KO NPCs): reduced p-MDM2
- total MDM2 ([4]; Fmr1 KO NPCs): without affecting total MDM2
- p-MDM2 (Ser166) ([4]; wildtype NPCs): reduced p-MDM2
- total MDM2 ([4]; wildtype NPCs): without affecting total MDM2
